According to ChEMBL document CHEMBL1201862, “PubChem BioAssay data set” (2004):
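Exposure lasted 48 hours, with cells grown in 96-well plates and compounds tested at five concentrations. GI50 marks 50% less growth.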 Calls of active or inactive are those of the source. Rule as the data show it: active = GI50 up to about 1.1 µM and inactive = higher.

Columns and labels:
Experiment in all cases: growth of human tumour cells (NCI), 48 h
786-0 = system: 786-0
EKVX = system: EKVX
HCT-15 = system: HCT-15
IGROV-1 = system: IGROV-1
K562 = system: K562
LOX IMVI = system: LOX IMVI
M14 = system: M14
NCI-H226 = system: NCI-H226
NCI-H522 = system: NCI-H522
RXF 393 = system: RXF 393
SF-268 = system: SF-268
SF-295 = system: SF-295
SR = system: SR
SW-620 = system: SW-620
UACC-257 = system: UACC-257
TK-10 = system: TK-10

| Structure (SMILES) | GI50 (786-0) | GI50 (EKVX) | GI50 (HCT-15) [µM] | GI50 (IGROV-1) | GI50 (K562) | GI50 (LOX IMVI) | GI50 (M14) | GI50 (NCI-H226) | GI50 (NCI-H522) | GI50 (RXF 393) | GI50 (SF-268) | GI50 (SF-295) | GI50 (SR) | GI50 (SW-620) | GI50 (UACC-257) | GI50 (TK-10) |
| --- | --- | --- | --- | --- | --- | --- | --- | --- | --- | --- | --- | --- | --- | --- | --- | --- |
| c1ccc2c(c1)cc1n2CC2CN=NC12 (stereo not given) | > 100 µM (inactive) | > 100 µM (inactive) | > 100 | > 100 µM (inactive) | > 100 µM (inactive) | > 100 µM (inactive) | > 100 µM (inactive) | > 100 µM (inactive) | > 100 µM (inactive) | > 100 µM (inactive) | > 100 µM (inactive) | > 100 µM (inactive) | > 100 µM (inactive) | > 100 µM (inactive) | > 100 µM (inactive) |  |
| COc1ccc(NC(=O)/C(=N/O)C(C)=O)cc1 | 45.1 µM (inactive) | > 100 µM (inactive) | 17.5 | > 100 µM (inactive) | 47.5 µM (inactive) | 30.8 µM (inactive) | > 100 µM (inactive) | > 100 µM (inactive) |  | > 100 µM (inactive) | > 100 µM (inactive) | > 100 µM (inactive) | > 100 µM (inactive) | 15.8 µM (inactive) | > 100 µM (inactive) | > 100 µM (inactive) |
| O=C(c1ccccc1)n1cc(/C=C/[N+](=O)[O-])c2ccccc21 | 20.2 µM (inactive) | > 100 µM (inactive) | 19.5 | 22.6 µM (inactive) | 19.7 µM (inactive) | 15.2 µM (inactive) | 20.8 µM (inactive) |  | 15.1 µM (inactive) | 20.5 µM (inactive) | 23.1 µM (inactive) | 42 µM (inactive) | 19.7 µM (inactive) | 19.6 µM (inactive) | 21.2 µM (inactive) | > 100 µM (inactive) |
| COc1ccc(O)cc1 [MEQUINOL] | 92 µM (inactive) | > 100 µM (inactive) | 24.5 | > 100 µM (inactive) | 68.1 µM (inactive) | 49 µM (inactive) | 53.5 µM (inactive) | > 100 µM (inactive) |  | > 100 µM (inactive) | 55 µM (inactive) |  | 89.7 µM (inactive) | > 100 µM (inactive) | > 100 µM (inactive) | > 100 µM (inactive) |
| Nc1nc(SCCC/C=C/I)nc2c1ncn2C1OC(CO)C(O)C1O (stereo not given) | > 202 µM (inactive) |  | > 202 | > 202 µM (inactive) | > 202 µM (inactive) | > 202 µM (inactive) | > 202 µM (inactive) | > 202 µM (inactive) | > 202 µM (inactive) |  | > 202 µM (inactive) | > 202 µM (inactive) | > 202 µM (inactive) | > 202 µM (inactive) | > 202 µM (inactive) | > 202 µM (inactive) |
| COc1cccc(C2CC23C(=O)NC(=O)NC3=O)c1 (stereo not given) | > 100 µM (inactive) | > 100 µM (inactive) | > 100 | > 100 µM (inactive) | > 100 µM (inactive) | > 100 µM (inactive) | > 100 µM (inactive) | > 100 µM (inactive) | > 100 µM (inactive) |  | > 100 µM (inactive) | > 100 µM (inactive) | > 100 µM (inactive) | > 100 µM (inactive) | > 100 µM (inactive) | > 100 µM (inactive) |
| CCC12CCCN(Cc3ccccc3)C1c1c(n(C)c3ccccc13)[C@H](C(=O)OC)C2 (stereo not given in full) | > 239 µM (inactive) | > 239 µM (inactive) | 85.7 | > 239 µM (inactive) | > 239 µM (inactive) | > 239 µM (inactive) |  | > 239 µM (inactive) | 122 µM (inactive) | > 239 µM (inactive) | > 239 µM (inactive) | > 239 µM (inactive) | > 239 µM (inactive) | 211 µM (inactive) | 110 µM (inactive) | > 239 µM (inactive) |
| CCOP(=O)(OCC)C1=NC=CC=CC1n1c(-c2ccccc2)nn(CC)c1=O (stereo not given) | > 100 µM (inactive) | > 100 µM (inactive) | > 100 | > 100 µM (inactive) |  | > 100 µM (inactive) |  | > 100 µM (inactive) | > 100 µM (inactive) | > 100 µM (inactive) | > 100 µM (inactive) | > 100 µM (inactive) | > 100 µM (inactive) | > 100 µM (inactive) | > 100 µM (inactive) | > 100 µM (inactive) |
| COc1ccc(/C=C2\C(=O)N(C(=O)Cc3ccccc3)N=C2C)cc1OC | > 100 µM (inactive) | > 100 µM (inactive) | > 100 |  | > 100 µM (inactive) | > 100 µM (inactive) | > 100 µM (inactive) | > 100 µM (inactive) | > 100 µM (inactive) |  | > 100 µM (inactive) | > 100 µM (inactive) | > 100 µM (inactive) | > 100 µM (inactive) | > 100 µM (inactive) | > 100 µM (inactive) |
| NNC(=S)N/N=C(/C(=O)Nc1ccc([N+](=O)[O-])cc1)c1nc2ccc([N+](=O)[O-])cc2nc1O | > 100 µM (inactive) | > 100 µM (inactive) | 74.6 | > 100 µM (inactive) | > 100 µM (inactive) | > 100 µM (inactive) | > 100 µM (inactive) | > 100 µM (inactive) | 36.5 µM (inactive) |  | > 100 µM (inactive) | > 100 µM (inactive) | > 100 µM (inactive) | > 100 µM (inactive) | > 100 µM (inactive) | > 100 µM (inactive) |
| CC1(C)Oc2ccccc2[N+]([O-])=C1c1ccccc1 | > 100 µM (inactive) |  | > 100 | > 100 µM (inactive) | > 100 µM (inactive) |  | > 100 µM (inactive) |  | > 100 µM (inactive) | > 100 µM (inactive) | > 100 µM (inactive) | > 100 µM (inactive) | > 100 µM (inactive) | > 100 µM (inactive) | > 100 µM (inactive) |  |
| Cc1cccc2c1Sc1ccccc1C2NC(=O)CCN(C)C (stereo not given) | > 10 µM (inactive) | > 100 µM (inactive) | > 100 | > 100 µM (inactive) | > 100 µM (inactive) | > 100 µM (inactive) | > 100 µM (inactive) | > 100 µM (inactive) |  | > 100 µM (inactive) | > 100 µM (inactive) |  | > 100 µM (inactive) | > 100 µM (inactive) | > 100 µM (inactive) | > 100 µM (inactive) |
| COC(=O)c1sc(=NC(=S)N2CCCCC2)sc1C(=O)OC | > 100 µM (inactive) |  | > 100 | > 100 µM (inactive) | 71.6 µM (inactive) |  | > 100 µM (inactive) | > 100 µM (inactive) | 0.569 µM (active) | > 100 µM (inactive) | > 100 µM (inactive) |  | 22.9 µM (inactive) | > 100 µM (inactive) | > 100 µM (inactive) | > 100 µM (inactive) |
| CCOC(=O)/C(=C/c1cccc(Cl)c1)N(CC)CC | 67.9 µM (inactive) | 55.7 µM (inactive) | 38.7 | 49.4 µM (inactive) | 52.2 µM (inactive) | 81.8 µM (inactive) | 64.3 µM (inactive) | 37.8 µM (inactive) | 24.3 µM (inactive) |  | 52.7 µM (inactive) | 46.3 µM (inactive) | > 100 µM (inactive) | 59 µM (inactive) | 55.8 µM (inactive) | > 100 µM (inactive) |
